Assay results: PMC5587909, “Inhibition of the ATP Synthase Eliminates the Intrinsic Resistance of Staphylococcus aureus towards Polymyxins” (mBio, 2017)
Converted amounts (≈) assume the structure as drawn. Bridge positions count the residues as written; N and C are the ends. Square brackets hold non-standard residues; d marks the D form. Peptide text beside a SMILES is read from it. * marks the point of attachment. Ileψ(thiazoline)Cys = CC[C@H](C)[C@H](N)C1=N[C@H](C(=O)*)CS1; dOrn = NCCC[C@@H](N)C(=O)O; X1 = CC[C@H](C)CCCCC(=O)*; Dab = NCC[C@H](N)C(=O)O

Tests used:
S. aureus JE2 (WT) = format: cell-based, Staphylococcus aureus; settings: 2-fold broth microdilution in TSB (100 µl), inoculum approx. 5 × 10^5 cells/ml, 37°C, 22 h
Description: (§1) The strains used in this study include S. aureus strain JE2 (plasmid-cured derivative of USA300 LAC) and all derivative strains within the Nebraska Transposon Mutant Library (NTML), consisting of 1,920 unique transposon mutants with inactivation of nonessential genes ([15]). The bursa aurealis transposon used to create the collection contains the resistance cassette ermB, which confers resistance to erythromycin ([15]). Additionally we used S. aureus SA113 and two derivatives, SA113 ΔdltA ([9]) and SA113 ΔmprF ([10]). All bacterial strains were cultured at 37°C in tryptic soy broth (TSB) or on tryptic soy agar (TSA), with antimicrobial agents added as indicated. Two methods have been employed to determine MICs to various antimicrobial agents. (i) A 2-fold broth microdilution assay in TSB (100 µl) with an initial inoculum of approximately 5 × 10^5 cells/ml was employed to determine the MICs of polymyxin B sulfate (Sigma), gallidermin (Santa Cruz Biotechnology), nisin (Sigma), bacitracin (Sigma), and LL-37 (Isca Biochemicals). (ii) An Etest (BioMérieux) performed on TSA plates was employed to determine MICs for polymyxin B, colistin, ciprofloxacin, oxacillin, linezolid, gentamicin, vancomycin, and daptomycin. The MIC was determined upon incubation at 37°C for 22 h. When indicated, the Etest (BioMérieux) was performed on Mueller-Hinton agar plates (cation adjusted for calcium and magnesium).

[1] = test system: S. aureus JE2 vraG mutant; format: cell-based, Staphylococcus aureus; settings: 2-fold broth microdilution in TSB (100 µl), inoculum approx. 5 × 10^5 cells/ml, 37°C, 22 h
Description: as §1

[2] = test system: S. aureus JE2 vraF mutant; format: cell-based, Staphylococcus aureus; settings: 2-fold broth microdilution in TSB (100 µl), inoculum approx. 5 × 10^5 cells/ml, 37°C, 22 h; vraF mutant
Description: as §1

[3] = test system: S. aureus JE2 atpA mutant; format: cell-based, Staphylococcus aureus; settings: 2-fold broth microdilution in TSB (100 µl), inoculum approx. 5 × 10^5 cells/ml, 37°C, 22 h
Description: as §1

[4] = test system: S. aureus JE2 graR mutant; format: cell-based, Staphylococcus aureus; settings: 2-fold broth microdilution in TSB (100 µl), inoculum approx. 5 × 10^5 cells/ml, 37°C, 22 h; graR mutant
Description: as §1

[5] = test system: S. aureus JE2 transposon mutant SAUSA300_1254 (hypothetical protein); format: cell-based, Staphylococcus aureus; settings: Etest on TSA, 37°C, 22 h
Description: (§2) Staphylococcus aureus is intrinsically resistant to the clinically approved cationic antimicrobial peptides polymyxin B (PMB) and colistin ([1], [16]). […] The MIC for PMB was subsequently determined using Etests for the identified mutants. Nineteen mutants were confirmed to be at least 2-fold more susceptible than the WT (Table 1). As expected, we identified transposon insertions in graS, graR, vraF, and vraG, corroborating previous work on these determinants in S. aureus in relation to increased PMB susceptibility ([12]).
as §1

[6] = test system: S. aureus JE2 atpG transposon mutant (SAUSA300_2059); format: cell-based, Staphylococcus aureus; settings: Etest on TSA, 37°C, 22 h; atpG mutant
Description: as §2, §1

[7] = test system: S. aureus JE2 vraS transposon mutant (SAUSA300_1866); format: cell-based, Staphylococcus aureus; settings: Etest on TSA, 37°C, 22 h
Description: as §2, §1

[8] = test system: S. aureus JE2 atpB transposon mutant (SAUSA300_2064); format: cell-based, Staphylococcus aureus; settings: Etest on TSA, 37°C, 22 h; atpB mutant
Description: as §2, §1

[9] = test system: S. aureus JE2 transposon mutant SAUSA300_0918 (diacylglycerol glucosyltransferase); format: cell-based, Staphylococcus aureus; settings: Etest on TSA, 37°C, 22 h
Description: as §2, §1

[10] = test system: S. aureus JE2 transposon mutant SAUSA300_1495 (hypothetical protein); format: cell-based, Staphylococcus aureus; settings: Etest on TSA, 37°C, 22 h
Description: as §2, §1

[11] = test system: S. aureus JE2 atpH transposon mutant (SAUSA300_2061); format: cell-based, Staphylococcus aureus; settings: Etest on TSA, 37°C, 22 h; atpH mutant
Description: as §2, §1

[12] = test system: S. aureus JE2 transposon mutant SAUSA300_1785 (putative ABC transporter protein EcsB); format: cell-based, Staphylococcus aureus; settings: Etest on TSA, 37°C, 22 h
Description: as §2, §1

[13] = test system: S. aureus JE2 cbiO transposon mutant (SAUSA300_2176); format: cell-based, Staphylococcus aureus; settings: Etest on TSA, 37°C, 22 h
Description: as §2, §1

[14] = test system: S. aureus JE2 transposon mutant SAUSA300_0980 (hypothetical protein); format: cell-based, Staphylococcus aureus; settings: Etest on TSA, 37°C, 22 h
Description: as §2, §1

[15] = test system: S. aureus JE2 transposon mutant SAUSA300_1802 (hypothetical protein); format: cell-based, Staphylococcus aureus; settings: Etest on TSA, 37°C, 22 h
Description: as §2, §1

[16] = test system: S. aureus JE2 lspA transposon mutant (SAUSA300_1089); format: cell-based, Staphylococcus aureus; settings: Etest on TSA, 37°C, 22 h
Description: as §2, §1

[17] = test system: S. aureus JE2 graS transposon mutant (SAUSA300_0646); format: cell-based, Staphylococcus aureus; settings: Etest on TSA, 37°C, 22 h; graS mutant
Description: as §2, §1

[18] = test system: S. aureus JE2 yajC transposon mutant (SAUSA300_1594); format: cell-based, Staphylococcus aureus; settings: Etest on TSA, 37°C, 22 h
Description: as §2, §1

[19] = test system: S. aureus JE2 trkA transposon mutant (SAUSA300_0988); format: cell-based, Staphylococcus aureus; settings: Etest on TSA, 37°C, 22 h
Description: as §2, §1

[20] = test system: S. aureus JE2 vraG transposon mutant (SAUSA300_0648); assay: microbe, parasite or virus in culture; settings: Etest on TSA, 37°C, 22 h, vraG mutant
Description: (§3) Staphylococcus aureus is intrinsically resistant to the clinically approved cationic antimicrobial peptides polymyxin B (PMB) and colistin ([1], [16]). […] The MIC for PMB was subsequently determined using Etests for the identified mutants.
as §1, with “(ii) An Etest (BioMérieux) performed on TSA plates was employed to determine MICs for polymyxin B, colistin, ciprofloxacin, oxacillin, linezolid, gentamicin, vancomycin, and daptomycin.” left out, “When indicated, the Etest (BioMérieux) was performed on Mueller-Hinton agar plates (cation adjusted for calcium and magnesium).” left out

[21] = test system: S. aureus JE2 vraF transposon mutant (SAUSA300_0647); assay: microbe, parasite or virus in culture; settings: Etest on TSA, 37°C, 22 h, vraF mutant
Description: as §3
as §1, with “(ii) An Etest (BioMérieux) performed on TSA plates was employed to determine MICs for polymyxin B, colistin, ciprofloxacin, oxacillin, linezolid, gentamicin, vancomycin, and daptomycin.” left out, “When indicated, the Etest (BioMérieux) was performed on Mueller-Hinton agar plates (cation adjusted for calcium and magnesium).” left out

[22] = test system: S. aureus JE2 graR transposon mutant (SAUSA300_0645); assay: microbe, parasite or virus in culture; settings: Etest on TSA, 37°C, 22 h, graR mutant
Description: as §3
as §1, with “(ii) An Etest (BioMérieux) performed on TSA plates was employed to determine MICs for polymyxin B, colistin, ciprofloxacin, oxacillin, linezolid, gentamicin, vancomycin, and daptomycin.” left out, “When indicated, the Etest (BioMérieux) was performed on Mueller-Hinton agar plates (cation adjusted for calcium and magnesium).” left out

[23] = test system: S. aureus JE2 (wild type); assay: microbe, parasite or virus in culture; settings: Etest on TSA, 37°C, 22 h
Description: as §3
as §1, with “(ii) An Etest (BioMérieux) performed on TSA plates was employed to determine MICs for polymyxin B, colistin, ciprofloxacin, oxacillin, linezolid, gentamicin, vancomycin, and daptomycin.” left out, “When indicated, the Etest (BioMérieux) was performed on Mueller-Hinton agar plates (cation adjusted for calcium and magnesium).” left out

[24] = test system: S. aureus JE2 atpA transposon mutant (SAUSA300_2060); assay: microbe, parasite or virus in culture; settings: Etest on TSA, 37°C, 22 h, atpA mutant
Description: as §3
as §1, with “(ii) An Etest (BioMérieux) performed on TSA plates was employed to determine MICs for polymyxin B, colistin, ciprofloxacin, oxacillin, linezolid, gentamicin, vancomycin, and daptomycin.” left out, “When indicated, the Etest (BioMérieux) was performed on Mueller-Hinton agar plates (cation adjusted for calcium and magnesium).” left out

[25] = conventional antibiotics (Table 3)

Question: Which results are given for CC[C@H](C)[C@H](N)C1=N[C@H](C(=O)N[C@@H](CC(C)C)C(=O)N[C@H](CCC(=O)O)C(=O)N[C@H](C(=O)N[C@H]2CCCCNC(=O)[C@H](CC(N)=O)NC(=O)[C@@H](CC(=O)O)NC(=O)[C@H](Cc3cnc[nH]3)NC(=O)[C@@H](Cc3ccccc3)NC(=O)[C@H]([C@@H](C)CC)NC(=O)[C@@H](CCCN)NC2=O)[C@@H](C)CC)CS1 [Bacitracin, bacitracin] ({Ileψ(thiazoline)Cys}-L[dE]IK[dOrn]I[dF]H[dD]N; lactam 4-C (inferred); N-terminus assumed)?
Answer: MIC, WT (S. aureus JE2 (WT)): 256 µg/mL (≈ 180 µM); MIC, vraG [1]: 256 µg/mL (≈ 180 µM); MIC, vraF [2]: 256 µg/mL (≈ 180 µM); MIC, atpA [3]: 128 µg/mL (≈ 90 µM); MIC, graR [4]: 128 µg/mL (≈ 90 µM)

Question: With CC[C@H](C)CCCCC(=O)N[C@@H](CCN)C(=O)N[C@H](C(=O)N[C@@H](CCN)C(=O)N[C@H]1CCNC(=O)[C@H]([C@@H](C)O)NC(=O)[C@H](CCN)NC(=O)[C@H](CCN)NC(=O)[C@H](CC(C)C)NC(=O)[C@@H](CC(C)C)NC(=O)[C@H](CCN)NC1=O)[C@@H](C)O [Colistin, colistin] (X1-[Dab]T[Dab][Dab][Dab][dL]L[Dab][Dab]T; lactam 4-C (inferred); N-terminus assumed) as the compound, how does the MIC [5] read?
Answer: 192 µg/mL (≈ 164 µM)

Question: And the MIC [6]?
Answer: 48 µg/mL (≈ 41 µM)

Question: And the MIC [7]?
Answer: 256 µg/mL (≈ 219 µM)

Question: And the MIC [8]?
Answer: 48 µg/mL (≈ 41 µM)

Question: And the MIC [9]?
Answer: >256 µg/mL

Question: What about the MIC [10] of the same compound?
Answer: >256 µg/mL

Question: And the MIC [11]?
Answer: 48 µg/mL (≈ 41 µM)

Question: And the MIC [12]?
Answer: >256 µg/mL

Question: And the MIC [13]?
Answer: 64 µg/mL (≈ 54.7 µM)

Question: And the MIC [14]?
Answer: >256 µg/mL

Question: And the MIC [15]?
Answer: >256 µg/mL

Question: And the MIC [16]?
Answer: 256 µg/mL (≈ 219 µM)

Question: What about the MIC [17] of the same compound?
Answer: 32 µg/mL (≈ 27.4 µM)

Question: And the MIC [18]?
Answer: 256 µg/mL (≈ 219 µM)

Question: And the MIC [19]?
Answer: 128 µg/mL (≈ 109 µM)

Question: What about the MIC [20] of the same compound?
Answer: 24 µg/mL (≈ 20.5 µM)

Question: And the MIC [21]?
Answer: 32 µg/mL (≈ 27.4 µM)

Question: What about the MIC [22] of the same compound?
Answer: 32 µg/mL (≈ 27.4 µM)

Question: What about the MIC ([23]; wild type S. aureus JE2) of the same compound?
Answer: >256 µg/mL

Question: And the MIC [24]?
Answer: 48 µg/mL (≈ 41 µM)

Question: Which results are given for CCCCCCCCCC(=O)N[C@@H](Cc1c[nH]c2ccccc12)C(=O)N[C@H](CC(N)=O)C(=O)N[C@@H](CC(=O)O)C(=O)N[C@@H]1C(=O)NCC(=O)N[C@@H](CCCN)C(=O)N[C@@H](CC(=O)O)C(=O)N[C@H](C)C(=O)N[C@@H](CC(=O)O)C(=O)NCC(=O)N[C@H](CO)C(=O)N[C@@H]([C@H](C)CC(=O)O)C(=O)N[C@@H](CC(=O)c2ccccc2N)C(=O)O[C@@H]1C [Daptomycin, daptomycin]?
Answer: MIC, vraG [20, 25]: 0.25 µg/mL (≈ 0.154 µM); MIC, vraF [21, 25]: 0.25 µg/mL (≈ 0.154 µM); MIC, graR [22, 25]: 0.19 µg/mL (≈ 0.117 µM); MIC, WT ([23]; conventional antibiotics (Table 3), WT JE2): 0.25 µg/mL (≈ 0.154 µM); MIC, atpA [24, 25]: 0.250 µg/mL (≈ 0.154 µM)
